Where two headings read alike, the source gives them in different places.
What was measured:
CDK9 [1] = molecular target: T1, CDK9 (Homo sapiens, UniProt P50750); assay: biochemical; conditions: biochemical assay; mean ± standard deviation of three individual experiments; read-out: CDK9 Inhibitory Activity IC50
T1 construct: purchased BPS Biosciences (San Diego, CA, USA) 79628
Procedure: In this study, all the newly synthesized compounds were assessed against CDK9 in a biochemical assay, and dinaciclib was used as a standard compound.
The luminescence was measured using a microplate reader. The results were analyzed using GraphPad Prism 5.0, and the kinase inhibitory activity was expressed as IC50 for three individual experiments. In the assay, dinaciclib was used as a positive control, and DMSO was used as negative control.

breast cancer (MCF7) = assay: MTT cytotoxicity assay, MCF7; type: cell-based; conditions: Homo sapiens, MCF7, 48 h, read-out: IC50 MCF7
Procedure: (§1) The in vitro cytotoxicity of our compounds was determined using MTT assay. […] The results were analyzed using GraphPad Prism 5.0, and cytotoxicity was expressed as IC50 for three individual experiments.

[2] = test system: chronic myelogenous leukaemia; assay: cells; conditions: K652, 48 h, read-out: IC50 K652
Procedure: as §1

[3] = test system: colorectal cancer (HCT116); assay: cells; conditions: Homo sapiens, HCT-116, 48 h, read-out: IC50 HCT116
Procedure: as §1

[4] = test system: MCF7, HCT116 and K652 cell lines; assay: MTT cytotoxicity assay, average of three cell lines; type: cell-based; conditions: read-out: average IC50 of three cell lines
Procedure: as §1

normal cells FHC = assay: cells; conditions: for average selectivity over three cancer cells: normal cells FHC vs MCF7, HCT116, K652; for IC50: read-out: FHC IC50
Procedure: as §1

human coronavirus 229E = assay: Cytopathic effect (CPE) inhibition assay, crystal violet method; type: cell-based; conditions: read-out: IC50 (229E)
Procedure: The anti-coronaviral activity of the new compounds was assessed using a cytopathic effect (CPE) inhibition assay against human coronavirus 229E. Ribavirin (well-established antiviral agent) was used as standard in this assay.

[5] = Cytotoxicity on target cells in the antiviral assay (crystal violet)
Procedure: The results were analyzed using GraphPad Prism 5.0, and cytotoxicity was expressed as IC50 for three individual experiments. In the assay, ribavirin was used as a positive control, and DMSO was used as a negative control.

CDK9 [6] = molecular target: T1, CDK9; conditions: identified by virtual screening from natural resources; cited from earlier work

T1 sequence (P50750 whole entry): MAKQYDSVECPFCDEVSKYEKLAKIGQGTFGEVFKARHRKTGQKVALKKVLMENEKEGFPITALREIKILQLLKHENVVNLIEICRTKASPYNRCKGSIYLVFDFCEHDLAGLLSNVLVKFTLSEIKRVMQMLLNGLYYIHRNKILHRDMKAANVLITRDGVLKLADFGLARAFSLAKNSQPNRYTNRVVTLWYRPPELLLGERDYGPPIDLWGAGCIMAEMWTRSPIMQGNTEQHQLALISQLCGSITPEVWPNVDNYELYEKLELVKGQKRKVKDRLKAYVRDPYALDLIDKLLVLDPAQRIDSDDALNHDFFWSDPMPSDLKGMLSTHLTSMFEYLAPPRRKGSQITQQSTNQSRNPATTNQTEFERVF
T1 sequence (O60563 whole entry partner): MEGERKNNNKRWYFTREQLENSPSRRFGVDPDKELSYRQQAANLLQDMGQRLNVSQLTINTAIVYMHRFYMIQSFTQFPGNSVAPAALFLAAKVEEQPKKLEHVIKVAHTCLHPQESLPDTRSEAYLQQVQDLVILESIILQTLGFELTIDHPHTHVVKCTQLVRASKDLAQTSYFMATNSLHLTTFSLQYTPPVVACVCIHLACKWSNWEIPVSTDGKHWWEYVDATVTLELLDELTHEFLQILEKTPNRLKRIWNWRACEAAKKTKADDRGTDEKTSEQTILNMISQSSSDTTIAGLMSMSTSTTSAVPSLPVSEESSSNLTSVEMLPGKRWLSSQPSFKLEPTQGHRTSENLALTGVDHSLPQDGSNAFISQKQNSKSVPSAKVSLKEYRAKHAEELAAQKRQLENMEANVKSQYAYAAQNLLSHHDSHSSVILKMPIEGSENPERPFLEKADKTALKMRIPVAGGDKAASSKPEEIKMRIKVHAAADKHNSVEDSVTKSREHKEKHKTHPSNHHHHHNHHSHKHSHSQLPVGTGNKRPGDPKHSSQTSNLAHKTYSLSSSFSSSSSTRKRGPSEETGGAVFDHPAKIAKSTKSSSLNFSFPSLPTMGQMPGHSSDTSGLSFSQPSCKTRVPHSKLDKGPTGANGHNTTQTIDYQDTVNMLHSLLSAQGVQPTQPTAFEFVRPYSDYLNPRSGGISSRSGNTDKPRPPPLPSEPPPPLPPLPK

Row | Compound | IC50 (CDK9 [1]) | IC50 (breast cancer (MCF7)) | IC50 [2] | IC50 [3] | melting point | IC50 [4] | average selectivity over three cancer cells (normal cells FHC) | IC50 (normal cells FHC) | IC50 (human coronavirus 229E) | CC50 [5] | IC50 (CDK9 [6])
1 | c1cn2c(NC3CCCCC3)c(-c3ccsc3)nc2cn1 [Compound 4b, N-Cyclohexyl-2-(thiophen-3-yl)imidazo[1,2-a]pyrazin-3-amine] | 1.32 ± 0.006 µM | 181 ± 2.63 µM | 46.6 ± 0.76 µM | 27.9 ± 0.43 µM | 170 to 172 °C |  |  |  |  |  | 
2 | COc1ccc(Nc2c(-c3ccccc3)nc3cnccn23)cc1 [Compound 1d, N-(4-Methoxyphenyl)-2-phenylimidazo[1,2-a]pyrazin-3-amine] | 1.04 ± 0.019 µM | 244 ± 3.62 µM | 77.4 ± 1.34 µM | 75.2 ± 1.24 µM |  |  |  |  |  |  | 
3 | CC(C)(C)Nc1c(-c2ccccc2)nc2cnccn12 [Compound 1a, N-(Tert-butyl)-2-phenylimidazo[1,2-a]pyrazin-3-amine] | 1.67 ± 0.025 µM | 405 ± 5.05 µM | 310 ± 4.49 µM | 597 ± 8.25 µM |  | 437 µM |  |  |  |  | 
4 | COc1ccc(Nc2c(-c3ccc(O)c(O)c3)nc3cnccn23)cc1 [Compound 2d, 4-(3-((4-Methoxyphenyl)amino)imidazo[1,2-a]pyrazin-2-yl)benzene-1,2-diol] | 2.03 ± 0.04 µM | 80.4 ± 1.31 µM | 136 ± 2.59 µM | 162 ± 2.41 µM | 150 to 152 °C | 126 µM |  |  |  |  | 
5 | c1ccc(CNc2c(-c3ccncc3)nc3cnccn23)cc1 [Compound 3c, N-Benzyl-2-(pyridin-4-yl)imidazo[1,2-a]pyrazin-3-amine] | 0.16 ± 0.003 µM | 8.59 ± 0.12 µM | 4.45 ± 0.06 µM | 7.96 ± 0.12 µM |  | 6.66 µM | 15 fold | 97.2 ± 1.58 µM | 379 µM | 472 µM | 
6 | CC(C)(C)Nc1c(-c2ccsc2)nc2cnccn12 [Compound 4a, N-(Tert-butyl)-2-(thiophen-3-yl)imidazo[1,2-a]pyrazin-3-amine] | 0.73 ± 0.011 µM | 25.4 ± 0.32 µM | 12.77 ± 0.06 µM | 61.31 ± 0.12 µM |  |  | 3.5 fold | 76.1 ± 1.11 µM |  |  | 
7 | COc1ccc(Nc2c(-c3ccncc3)nc3cnccn23)cc1 [Compound 3d, N-(4-Methoxyphenyl)-2-(pyridin-4-yl)imidazo[1,2-a]pyrazin-3-amine] | 0.8 ± 0.014 µM | 118 ± 1.17 µM | 46.6 ± 0.48 µM | 27.9 ± 1.88 µM |  |  |  |  |  |  | 
8 | COc1ccc(Nc2c(-c3ccsc3)nc3cnccn23)cc1 [Compound 4d, N-(4-Methoxyphenyl)-2-(thiophen-3-yl)imidazo[1,2-a]pyrazin-3-amine] | 3.16 ± 0.058 µM | 141 ± 2.13 µM | 87.2 ± 1.53 µM | 115 ± 1.93 µM |  |  |  |  |  |  | 
9 | c1ccc(CNc2c(-c3ccccc3)nc3cnccn23)cc1 [Compound 1c, N-Benzyl-2-phenylimidazo[1,2-a]pyrazin-3-amine] | 1.01 ± 0.017 µM | 99 ± 1.39 µM | 88.6 ± 8.25 µM | 59.3 ± 5.05 µM |  |  |  |  |  |  | 
10 | Oc1ccc(-c2nc3cnccn3c2NCc2cccs2)cc1O [Compound 10] |  |  |  |  |  |  |  |  |  |  | 5.12 µM
11 | c1ccc(CNc2c(-c3ccsc3)nc3cnccn23)cc1 [Compound 4c, N-Benzyl-2-(thiophen-3-yl)imidazo[1,2-a]pyrazin-3-amine] | 0.71 ± 0.012 µM | 55.8 ± 0.8 µM | 69.2 ± 3.89 µM | 80.6 ± 1.26 µM |  |  |  |  |  |  | 
12 | CN[C@@H]1C[C@H]2O[C@@](C)([C@@H]1OC)n1c3ccccc3c3c4c(c5c6ccccc6n2c5c31)C(=O)NC4 [Staurosporine, reference compound] |  | 18.4 ± 0.4 µM |  |  |  |  |  |  |  |  | 
13 | CC(C)(C)Nc1c(-c2ccncc2)nc2cnccn12 [Compound 3a, N-(Tert-butyl)-2-(pyridin-4-yl)imidazo[1,2-a]pyrazin-3-amine] | 0.26 ± 0.004 µM | 4.3 ± 0.5 µM | 46 ± 0.67 µM | 2.69 ± 0.04 µM |  | 17.7 µM | 41 fold | 196 ± 2.79 µM | 394 µM | 940 µM | 
14 | CC(C)(C)Nc1c(-c2ccc(O)c(O)c2)nc2cnccn12 [Compound 2a, 4-(3-(Tert-butylamino)imidazo[1,2-a]pyrazin-2-yl)benzene-1,2-diol] | 1.14 ± 0.019 µM | 76.8 ± 1.08 µM | 22.8 ± 0.37 µM | 35.9 ± 0.56 µM | 270 to 272 °C |  |  |  |  |  | 
15 | c1ccc(-c2nc3cnccn3c2NC2CCCCC2)cc1 [Compound 1b, N-Cyclohexyl-2-phenylimidazo[1,2-a]pyrazin-3-amine] | 0.25 ± 0.004 µM | 3.01 ± 0.04 µM | 50.3 ± 0.8 µM | 1.43 ± 0.02 µM |  | 18.2 µM | 43 fold | 123 ± 19.1 µM | 146 µM | 299 µM | 
16 | Oc1ccc(-c2nc3cnccn3c2NCc2ccccc2)cc1O [Compound 2c, 4-(3-(Benzylamino)imidazo[1,2-a]pyrazin-2-yl)benzene-1,2-diol] | 0.31 ± 0.006 µM | 39.7 ± 0.62 µM | 88.6 ± 1.09 µM | 59.9 ± 1.04 µM |  |  |  |  |  |  | 
17 | NC(=O)c1ncn([C@@H]2O[C@H](CO)[C@@H](O)[C@H]2O)n1 [Ribavirin, reference compound] |  |  |  |  |  |  |  |  | 114 µM | 160 µM | 
18 | Oc1ccc(-c2nc3cnccn3c2NC2CCCCC2)cc1O [Compound 2b, 4-(3-(Cyclohexylamino)imidazo[1,2-a]pyrazin-2-yl)benzene-1,2-diol] | 0.89 ± 0.016 µM | 119 ± 1.82 µM | 54.2 ± 0.96 µM | 105 ± 1.78 µM |  |  |  |  |  |  | 
19 | c1cc(-c2nc3cnccn3c2NC2CCCCC2)ccn1 [Compound 3b, N-Cyclohexyl-2-(pyridin-4-yl)imidazo[1,2-a]pyrazin-3-amine] | 0.41 ± 0.007 µM | 31.7 ± 0.44 µM | 67.8 ± 1.08 µM | 8.96 ± 0.14 µM |  |  |  |  | 57 µM | 407 µM | 

Source: article PMC9319549, “Synthesis and Biological Evaluation of Imadazo[1,2-a]pyrazines as Anticancer and Antiviral Agents through Inhibition of CDK9 and Human Coronavirus” (Pharmaceuticals, 2022)
